Test systems include HT29 colon; EKVX NSCLC; SR leukemia; A498 renal; U251 CNS; SK-OV-3 ovarian; OVCAR-5 ovarian; OVCAR-8 ovarian.
Holding throughout (experiment): NCI-60 cell line screen, 48 h

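In this assay, cells in 96-well plates receive the compound at five concentrations for 48 hours. Endpoints are linearly interpolated between the surrounding concentrations. GI50 is the concentration that inhibits growth by half. TGI marks complete inhibition of growth.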

Take `O=C1/C=C/[C@@H](O)[C@@H]2C[C@@H](O)C[C@H]2/C=C/CCC[C@H](CCO)O1`: the GI50 was 0.0841 µM in the experiment on HT29 colon; 0.253 µM in the experiment on EKVX NSCLC; 0.297 µM in the experiment with SR leukemia; 0.0442 µM in the experiment with A498 renal; 0.382 µM in the experiment with U251 CNS; 0.287 µM with SK-OV-3 ovarian. The GI50 in the experiment on OVCAR-5 ovarian was 0.396 µM; with OVCAR-8 ovarian, 0.153 µM. Also, the TGI in the experiment with HT29 colon is 1.31 µM; in the experiment on EKVX NSCLC it was over 100 µM; in the experiment with A498 renal it was 0.274 µM; in the experiment on U251 CNS, over 100 µM; with SK-OV-3 ovarian, over 100 µM; in the experiment on OVCAR-5 ovarian, over 100 µM.
`O=[N+]([O-])c1ccc2c(c1)C(N1CCN(CCO)CC1)Cc1ccc(F)cc1S2` (stereo unspecified): the TGI in the experiment with HT29 colon came out at 7.14 µM; in the experiment on EKVX NSCLC it was 24.1 µM; in the experiment on SR leukemia it was 20.6 µM; in the experiment on A498 renal, 25.8 µM; in the experiment on U251 CNS, 24.3 µM; in the experiment on SK-OV-3 ovarian, 31 µM. Further, the TGI came out at 26.9 µM in the experiment with OVCAR-5 ovarian and 25.5 µM in the experiment with OVCAR-8 ovarian.
Regarding `CN1CCN(Cc2ccc(NC(=O)c3cncc(C#Cc4ccc(N)nc4)c3)cc2C(F)(F)F)CC1`, the GI50 is 0.728 µM in the experiment on HT29 colon; 1.16 µM in the experiment on EKVX NSCLC; 0.679 µM with SR leukemia; 0.567 µM with A498 renal; 0.924 µM in the experiment with U251 CNS; 0.693 µM in the experiment on SK-OV-3 ovarian. Further, the GI50 is 1.38 µM in the experiment with OVCAR-5 ovarian and 1.73 µM in the experiment with OVCAR-8 ovarian. In addition, the TGI with HT29 colon was 4.59 µM; in the experiment with EKVX NSCLC, 6.08 µM; in the experiment on SR leukemia, 3.51 µM; in the experiment on A498 renal, 1.93 µM; in the experiment with U251 CNS, 6.6 µM; with SK-OV-3 ovarian, 4.69 µM. Moreover, the TGI in the experiment with OVCAR-5 ovarian worked out at 7.22 µM; in the experiment on OVCAR-8 ovarian, 9.9 µM.
Turning to `Cc1ccc2ccccc2c1CSc1nc(N)nc2c1ncn2CC(C)C`, the TGI is over 100 µM in the experiment with HT29 colon; over 100 µM in the experiment on EKVX NSCLC; 50.6 µM in the experiment on SR leukemia; 99.6 µM with A498 renal; over 100 µM in the experiment on U251 CNS; over 100 µM in the experiment on SK-OV-3 ovarian. Besides, the TGI in the experiment with OVCAR-5 ovarian and with OVCAR-8 ovarian was over 100 µM throughout.
Turning to `COC(=O)Nc1nc2ccc(C(=O)c3cccc(I)c3)cc2[nH]1`, the GI50 with HT29 colon is 0.0375 µM; in the experiment on EKVX NSCLC it was 0.176 µM; in the experiment on SR leukemia it was 0.0314 µM; in the experiment on A498 renal it was 0.0434 µM; with U251 CNS, 0.0559 µM; with SK-OV-3 ovarian, 0.257 µM. For the same molecule, the GI50 was 0.173 µM with OVCAR-5 ovarian and 0.132 µM in the experiment on OVCAR-8 ovarian. Further, the TGI was 26 µM in the experiment with HT29 colon; over 87.9 µM in the experiment on EKVX NSCLC; 0.614 µM with A498 renal; 12.3 µM in the experiment with U251 CNS; 28.6 µM in the experiment on SK-OV-3 ovarian; 17 µM in the experiment with OVCAR-5 ovarian. In the experiment on OVCAR-8 ovarian, the TGI was determined as 30.4 µM.
On to `COc1cc(OC)c(/C=C/C(=O)c2c(OC)cc(OC)cc2OC)c(OC)c1`, for which the GI50 in the experiment with HT29 colon was 0.381 µM; in the experiment on EKVX NSCLC it was 3.61 µM; with SR leukemia, 0.206 µM; in the experiment on A498 renal, 0.27 µM; with U251 CNS, 1.11 µM; with SK-OV-3 ovarian, 2.66 µM. The GI50 with OVCAR-5 ovarian was 2.8 µM; in the experiment on OVCAR-8 ovarian, 3.43 µM. In addition, the TGI with HT29 colon was 2.1 µM; in the experiment with EKVX NSCLC, over 100 µM; in the experiment with SR leukemia it was 0.761 µM; in the experiment with A498 renal, 4.85 µM; with U251 CNS it was 9.43 µM; in the experiment on SK-OV-3 ovarian, 25.9 µM. The figures for the TGI with OVCAR-5 ovarian and in the experiment on OVCAR-8 ovarian were 53 µM and over 100 µM, respectively.
Regarding `C=CCc1c(O)c(C(=O)/C=C/c2ccc(Cl)cc2)c(OC)c2ccoc12`, the GI50 is 1.89 µM in the experiment on HT29 colon; 7.23 µM in the experiment with EKVX NSCLC; 2.77 µM in the experiment with SR leukemia; 2.77 µM in the experiment on A498 renal; 2.3 µM in the experiment with U251 CNS; 5.96 µM in the experiment on SK-OV-3 ovarian. In addition, the GI50 was 2.8 µM in the experiment on OVCAR-5 ovarian and 3.04 µM with OVCAR-8 ovarian. The TGI came out at 3.98 µM in the experiment with HT29 colon; 21.5 µM in the experiment on EKVX NSCLC; 9.11 µM with SR leukemia; 13 µM in the experiment with A498 renal; 5.87 µM in the experiment on U251 CNS; 19.2 µM in the experiment with SK-OV-3 ovarian. The TGI with OVCAR-5 ovarian turned out to be 9.71 µM; in the experiment on OVCAR-8 ovarian, 12 µM.
For `CCOC(=O)N1CCC(N=C2CSc3nnc(-c4cc(C(F)(F)F)cc(C(F)(F)F)c4)n3N2)CC1`, the GI50 in the experiment on HT29 colon is 1.97 µM; in the experiment on EKVX NSCLC, 1.77 µM; with SR leukemia, 2.39 µM; with A498 renal, 1.94 µM; with U251 CNS, 1.77 µM; in the experiment with SK-OV-3 ovarian, 3.21 µM. The GI50 with OVCAR-5 ovarian was 1.95 µM; in the experiment with OVCAR-8 ovarian it was 2.44 µM. In addition, the TGI in the experiment with HT29 colon worked out at 3.65 µM; with EKVX NSCLC, 5.43 µM; in the experiment on SR leukemia, 6.23 µM; with A498 renal it was 5.52 µM; with U251 CNS, 3.53 µM; with SK-OV-3 ovarian, 8.71 µM. The TGI came out at 4 µM in the experiment on OVCAR-5 ovarian and 6.25 µM in the experiment with OVCAR-8 ovarian.
On to `CC(C)[C@@H](C(=O)O[C@@H]1/C=C/C(=O)O[C@@H](C)CCC/C=C/[C@@H]2C[C@H](O)C[C@H]21)N(C)C`, for which the GI50 is 5.16 µM in the experiment on HT29 colon; 12.5 µM with EKVX NSCLC; 14.9 µM in the experiment on SR leukemia; 2.54 µM in the experiment with A498 renal; 30.2 µM in the experiment with U251 CNS; 23.8 µM with SK-OV-3 ovarian. Moreover, the GI50 with OVCAR-5 ovarian was 35.9 µM; in the experiment on OVCAR-8 ovarian, 18.1 µM. The TGI was 27.3 µM in the experiment with HT29 colon; 64.9 µM with EKVX NSCLC; 38.1 µM with SR leukemia; 7.97 µM in the experiment with A498 renal; over 100 µM with U251 CNS; over 96 µM with SK-OV-3 ovarian. Moreover, the TGI in the experiment on OVCAR-5 ovarian was over 100 µM; in the experiment on OVCAR-8 ovarian, over 83.2 µM.
`Oc1c(C(Nc2ccccn2)c2ccccc2)ccc2cccnc12` (stereo unspecified): the TGI in the experiment with HT29 colon is over 86.5 µM; with EKVX NSCLC, 28.6 µM; in the experiment with SR leukemia, over 22.6 µM; in the experiment with A498 renal it was 54.8 µM; in the experiment on U251 CNS it was 12.3 µM; with SK-OV-3 ovarian, 63.8 µM. The TGI in the experiment on OVCAR-5 ovarian was over 100 µM; with OVCAR-8 ovarian, 23.7 µM.
For `CC(=O)OC1CC2(C)C(=CC1C1SCCS1)CCC1C2CCC2(C)C(OC(C)=O)CCC12` (stereo unspecified), the TGI with HT29 colon, with EKVX NSCLC, in the experiment with SR leukemia, with A498 renal, in the experiment on U251 CNS and with SK-OV-3 ovarian was over 100 µM each time. Besides, the TGI with OVCAR-5 ovarian and in the experiment on OVCAR-8 ovarian was over 100 µM in each case.
